Laboratory results: ChEMBL document CHEMBL1201862, “PubChem BioAssay data set” (2004)
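These data come from cells grown in 96-well plates and exposed to compound for 48 hours at five concentrations. The concentration for 50% growth inhibition is given as GI50.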 Activity calls are given as the source filed them. No stated cut-off is given here; in the data, active = GI50 up to about 1.1 µM and inactive = higher.

Assays:
Test in all cases: NCI-60 cell line screen, 48 h
UO-31 = system: UO-31
UACC-62 = system: UACC-62
A498 = system: A498
U-251 = system: U-251
OVCAR-4 = system: OVCAR-4
SW-620 = system: SW-620
SNB-19 = system: SNB-19
A549 = system: A549
EKVX = system: EKVX
KM12 = system: KM12
TK-10 = system: TK-10
SK-MEL-5 = system: SK-MEL-5
HT-29 = system: HT-29
OVCAR-3 = system: OVCAR-3
SF-268 = system: SF-268
NCI-H522 = system: NCI-H522
SF-539 = system: SF-539
LOX IMVI = system: LOX IMVI
RXF 393 = system: RXF 393
NCI-H226 = system: NCI-H226

Measured: GI50

CC12CCC(=O)N1c1cnccc1N2 (stereo unspecified)
inactive: UO-31 > 100 µM | UACC-62 > 100 µM | A498 > 100 µM | U-251 > 100 µM | OVCAR-4 > 100 µM | SW-620 > 100 µM | SNB-19 > 100 µM | A549 > 100 µM | EKVX > 100 µM | KM12 > 100 µM | TK-10 > 100 µM | SK-MEL-5 > 100 µM | HT-29 > 100 µM | OVCAR-3 > 100 µM | SF-268 > 100 µM | NCI-H522 > 100 µM | SF-539 > 100 µM

CCOc1ncn(-c2ccc(NC(=S)Nc3cccc(O)c3)cc2)n1
inactive: UO-31 > 100 µM | UACC-62 > 100 µM | U-251 > 100 µM | OVCAR-4 > 100 µM | SW-620 > 100 µM | SNB-19 > 100 µM | A549 > 100 µM | EKVX > 100 µM | LOX IMVI > 100 µM | KM12 > 100 µM | TK-10 > 100 µM | SK-MEL-5 > 100 µM | HT-29 > 100 µM | OVCAR-3 > 100 µM | SF-268 > 100 µM | NCI-H522 > 100 µM | SF-539 > 100 µM

CC(=O)O[C@H]1CC[C@H]2[C@@H]3CCC(C(C)=O)[C@H](C(=O)O)[C@H]3CC[C@]12C (stereo partly specified)
inactive: UO-31 > 100 µM | UACC-62 > 100 µM | A498 > 100 µM | U-251 > 100 µM | OVCAR-4 > 100 µM | RXF 393 > 100 µM | SW-620 > 100 µM | SNB-19 > 100 µM | A549 > 100 µM | EKVX > 100 µM | KM12 > 100 µM | TK-10 > 100 µM | SK-MEL-5 > 100 µM | HT-29 > 100 µM | OVCAR-3 > 100 µM | SF-268 > 100 µM | NCI-H522 > 100 µM | SF-539 > 100 µM

CC1(C)OC[C@H](C(=N)OCc2ccccc2)O1
inactive: UO-31 > 100 µM | UACC-62 > 100 µM | A498 > 100 µM | U-251 > 100 µM | OVCAR-4 > 100 µM | RXF 393 > 100 µM | SW-620 > 100 µM | SNB-19 > 100 µM | A549 > 100 µM | EKVX > 100 µM | NCI-H226 19.3 µM | KM12 > 100 µM | TK-10 > 100 µM | SK-MEL-5 > 100 µM | HT-29 > 100 µM | OVCAR-3 > 100 µM | SF-268 > 100 µM | NCI-H522 > 100 µM | SF-539 > 100 µM

N#C/C(=C\c1ccc(Cl)cc1)c1nc2ccccc2c(=O)[nH]1
inactive: UO-31 > 100 µM | UACC-62 43.7 µM | U-251 52.5 µM | OVCAR-4 > 100 µM | RXF 393 81.5 µM | SW-620 > 100 µM | SNB-19 85.9 µM | A549 > 100 µM | EKVX > 100 µM | LOX IMVI > 100 µM | NCI-H226 > 100 µM | KM12 > 100 µM | TK-10 76 µM | SK-MEL-5 > 100 µM | HT-29 > 100 µM | SF-268 51.6 µM | NCI-H522 37.4 µM | SF-539 > 100 µM

Nc1n[nH]c2c1Cc1c(n(Cc3ccc(Cl)cc3)c3ccccc13)C(=O)N2
inactive: UO-31 4.82 µM | UACC-62 20.3 µM | A498 13.7 µM | U-251 > 10 µM | OVCAR-4 13.8 µM | RXF 393 5.69 µM | SW-620 8.47 µM | A549 17.8 µM | EKVX 18.7 µM | LOX IMVI 9.79 µM | NCI-H226 11.1 µM | TK-10 15 µM | SK-MEL-5 3.69 µM | HT-29 16.1 µM | OVCAR-3 14.1 µM | SF-268 17.1 µM | SF-539 15.4 µM

CN1C(=O)C(C#N)C2C[C@@]1(C)Oc1ccccc12 (stereo partly specified)
inactive: UO-31 > 100 µM | UACC-62 > 100 µM | A498 > 100 µM | U-251 > 100 µM | OVCAR-4 > 100 µM | RXF 393 > 100 µM | SW-620 > 100 µM | SNB-19 > 100 µM | A549 > 100 µM | EKVX > 100 µM | LOX IMVI > 100 µM | NCI-H226 > 100 µM | KM12 > 100 µM | TK-10 > 100 µM | SK-MEL-5 > 100 µM | HT-29 > 100 µM | OVCAR-3 > 100 µM | SF-268 > 100 µM | NCI-H522 > 100 µM

C=C1CC[C@@H](Br)C(C)(C)[C@]12CCC(C)(O)C(Cl)C2 (stereo partly specified)
inactive: UO-31 18.1 µM | UACC-62 18.5 µM | A498 28.9 µM | U-251 16.2 µM | RXF 393 17.5 µM | SW-620 14.2 µM | SNB-19 19.8 µM | A549 20 µM | EKVX 19.1 µM | LOX IMVI 19.1 µM | NCI-H226 16.7 µM | KM12 18.2 µM | TK-10 29.2 µM | SK-MEL-5 20.9 µM | HT-29 16.8 µM | OVCAR-3 20.3 µM | SF-268 17.4 µM | NCI-H522 16.6 µM

CC(=O)/N=C1\N/C(=C/c2cc([N+](=O)[O-])ccc2O)CN1C
inactive: UO-31 > 100 µM | UACC-62 > 100 µM | U-251 > 100 µM | OVCAR-4 > 100 µM | SW-620 > 100 µM | SNB-19 > 100 µM | A549 > 100 µM | EKVX > 100 µM | LOX IMVI > 100 µM | NCI-H226 > 100 µM | KM12 > 100 µM | TK-10 > 100 µM | SK-MEL-5 > 100 µM | HT-29 > 100 µM | OVCAR-3 > 100 µM | SF-539 > 100 µM

CCOC(=O)/C=C1/C(CCCOCc2ccccc2)C2CCCC23CC2(CCN13)OCCO2 (stereo unspecified)
inactive: UO-31 17.2 µM | UACC-62 15.2 µM | A498 19.9 µM | U-251 20.1 µM | OVCAR-4 24.3 µM | RXF 393 6.32 µM | SW-620 33.9 µM | SNB-19 33.3 µM | A549 18.9 µM | EKVX 34.8 µM | LOX IMVI 18.1 µM | NCI-H226 22.6 µM | KM12 22.3 µM | TK-10 36.2 µM | SK-MEL-5 15.7 µM | HT-29 16.9 µM | OVCAR-3 18.3 µM | SF-268 42 µM | NCI-H522 6.82 µM

O=C1OC(CN2CCOCC2)CN1/N=C/c1ccc([N+](=O)[O-])o1 (stereo unspecified) [FURALTADONE]
inactive: UO-31 97.1 µM | UACC-62 34 µM | U-251 31.6 µM | OVCAR-4 45.5 µM | SW-620 50.7 µM | SNB-19 86.1 µM | A549 50.9 µM | EKVX 63.7 µM | LOX IMVI 21.7 µM | NCI-H226 39.1 µM | KM12 18.5 µM | TK-10 > 100 µM | SK-MEL-5 23.6 µM | HT-29 32.4 µM | OVCAR-3 21.9 µM | SF-268 60.3 µM | NCI-H522 26 µM | SF-539 42.1 µM
